Measurements published in patent US20090156669A1, “COMBINATION OF ACTIVE INGREDIENTS WITH INSECTICIDAL AND ACARICIDAL PROPERTIES” (Bayer CropScience AG, priority 2006, published 2009).

Tested on: Tetranychus urticae
Experiment: Tetranychus urticae test (OP-resistant, dip application)
Type: in vivo
Settings: dip application of infested bush beans (Phaseolus vulgaris), OP-resistant spider mites
Description: Tetranychus urticae—Test (OP-Resistent, Dip Application)
To produce a suitable preparation of active compound, 1 part by weight of active compound is mixed with the stated amounts of solvent and emulsifier, and the concentrate is diluted with water to the desired concentrations.
Busch beans (Phaseolus vulgaris), which are heavily infected by the greenhouse red spider mite (Tetranychus urticae) are dipped into an active compound preparation of the desired concentration.
After the desired period of time, the kill in % is determined. 100% means that all spider mites have been killed; 0% means that none of the spider mites have been killed.

SMILES | Kill in % after 6 d (100 ppm) | Kill in % after 6 d (0.16 ppm)
CC1(C)[C@H](/C=C(\Cl)C(F)(F)F)[C@@H]1C(=O)O[C@H](C#N)c1cccc(Oc2ccccc2)c1 [gamma-cyhalothrin] | 65% | –
Cc1cc(C)c(C2=C(OC(=O)CC(C)(C)C)C3(CCCC3)OC2=O)c(C)c1 [spiromesifen] | – | 0%
